System: metal-dependent proteases
Conditions: 3 mM EDTA in washing and elution liquid, harvest solution no. 2
Procedure: The method chosen was a protease assay with casein which was resorufin-labeled. By treatment with proteases, resorufin-labeled peptides are released from the casein. The concentration of these resorufin-labeled peptides in the supernatant is a measure of the proteolytic activity present. The test sample was incubated at 37° C. for a period of time which was dependent upon the sample at issue. The absorption wave-length chosen was 574 run throughout the tests.
Conditioned mediums (containing human serum albumin) from two consecutive harvests, were clarified and buffered with NH4 Ac. Each resulting solution, with a pH of 6.8, was loaded onto a column containing SP SEPHAROSE® FF sold by Pharmacia AB of Uppsala, Sweden. This cation-exchange chromatography step was performed at about 8° C. After washing, factor VIII was eluted with a salt buffer containing 0.8M NaCl and 0.1M NH4 Ac. The washing liquid as well as the elution liquid contained 3 mM EDTA in the tests with harvest solution no. 2. Tests without EDTA present was carried out for comparison (harvest solution no. 1). […] The concentration of unbound Ca^2+ -ions was determined by an ion-selective electrode.

**Q.** For `O=C(O)CN(CCN(CC(=O)O)CC(=O)O)CC(=O)O` [EDTA, ethylenediamine tetraacetic acid], which Mean absorbance corrected (blank subtracted) is on record?
**A.** 0.023

**Q.** What about the “Protease activity (%)” value (harvest no. 1 without EDTA = 100) of the same compound?
**A.** 8%

**Q.** And the Mean absorbance (incubation 2 h)?
**A.** 0.064

Source: patent US5831026A, “Process for purifying factor VIII” (Pharmacia & Upjohn AB, priority 1994, dated 1998)
